Measurements reported in patent US20070128217A1 (priority 2003, published 2007).

Tests used:
[1] = system: recombinant human anti-SARS-CoV antibody 03-018; type: binding; design: Binding of antibody 03-018 to linear peptides of the N protein of SARS-CoV Urbani / Binding of antibody 03-018 to looped/cyclic peptides of the N protein of SARS-CoV Urbani: unit not given here
[2] = system: control sera (pooled serum of ten healthy LUMC hospital workers; commercial negative donor pooled serum from the Dutch bloodbank); type: binding, human; design: Binding of Control serum LUMC to linear peptides / Binding of Control serum Blood-bank to linear peptides / Binding of Control serum LUMC to looped peptides / Binding of Control Serum Blood-Bank to Looped peptides / Binding of Control serum LUMC to linear peptides of the protein M of SARS-CoV Urbani / Binding of Control serum Blood-bank to linear peptides of the protein M of SARS-CoV Urbani / Binding of Control serum LUMC to looped peptides of the protein M of SARS-CoV Urbani / Binding of Control Serum Blood-Bank to Looped peptides of the protein M of SARS-CoV Urbani: unit not given here
[3] = system: antibodies in sera from SARS patients (sera 1a, 1b, 2, 6, 37, 62, London, SARS-yellow, SARS-green); type: binding, human; design: Binding of serum 6 to linear peptides of protein X1 of SARS-CoV Urbani / Binding of serum 37 to linear peptides of protein X1 of SARS-CoV Urbani / Binding of serum 6 to looped/cyclic peptide (PEPSCAN-ELISA) / Binding of serum 37 to looped/cyclic peptide (PEPSCAN-ELISA) / Binding of serum 37 to looped/cyclic peptides of protein X1 of SARS-CoV Urbani / Binding of serum 6 to linear peptides of protein X2 / Binding of serum 37 to linear peptides of protein X2 / Binding of serum 37 to looped/cyclic peptides of protein X2 of SARS-CoV Urbani / Binding of serum 6 to linear peptides of protein M of SARS-CoV Urbani / Binding of serum 37 to linear peptides of protein M of SARS-CoV Urbani / Binding of serum 6 to looped/cyclic peptides of protein M of SARS-CoV Urbani / Binding of serum 37 to looped/cyclic peptides of protein M of SARS-CoV Urbani / Binding of serum 6 to linear peptides of protein X3 of SARS-CoV Urbani / Binding of serum 37 to linear peptides of protein X3 of SARS-CoV Urbani / Binding of serum 37 to looped/cyclic peptides of protein X3 of SARS-CoV Urbani / Binding of serum 6 to linear peptides of protein X4 of SARS-CoV Urbani / Binding of serum 37 to linear peptides of protein X4 of SARS-CoV Urbani / Binding of serum 37 to looped/cyclic peptides of protein X4 of SARS-CoV Urbani / Binding of serum 6 to linear peptides of protein X5 of SARS-CoV Urbani / Binding of serum 37 to linear peptides of protein X5 of SARS-CoV Urbani / Binding of serum 37 to looped/cyclic peptides of protein X5 of SARS-CoV Urbani / Binding of serum 6 to linear peptides of protein N of SARS-CoV Urbani / Binding of serum 37 to linear peptides of protein N of SARS-CoV Urbani / Binding of serum 6 to linear peptide (PEPSCAN-ELISA) / Binding of serum 1a to looped/cyclic peptides of protein N of SARS-CoV Urbani / Binding of serum 1b to looped/cyclic peptides of protein N of SARS-CoV Urbani / Binding of serum 2 to looped/cyclic peptides of protein N of SARS-CoV Urbani / Binding of serum 6 to looped/cyclic peptides of protein N of SARS-CoV Urbani / Binding of serum 37 to looped/cyclic peptides of protein N of SARS-CoV Urbani / Binding of serum 62 to looped/cyclic peptides of protein N of SARS-CoV Urbani / Binding of serum London to looped/cyclic peptides of protein N of SARS-CoV Urbani / Binding of serum SARS-green to looped/cyclic peptides of protein N of SARS-CoV Urbani: unit not given here
[4] = system: rabbit serum obtained by immunizing a rabbit with the SARS-CoV strain Frankfurt 1; type: binding; design: Binding of a rabbit serum to linear peptides / Binding of a rabbit serum to looped peptides / Rabbit serum linear peptides / Rabbit serum looped peptides / Binding of a rabbit serum to linear peptides of protein N of SARS-CoV Urbani (Rabbit serum linear peptides) / Binding of a rabbit serum to looped/cyclic peptides of protein N of SARS-CoV Urbani (Rabbit serum looped peptides): unit not given here

Sequence | Binding of antibody 03-018 to linear peptides of the N protein of SARS-CoV Urbani [1] | Binding of antibody 03-018 to looped/cyclic peptides of the N protein of SARS-CoV Urbani [1] | Binding of Control Serum Blood-Bank to Looped peptides [2] | Binding of Control serum Blood-bank to linear peptides [2] | Binding of Control serum LUMC to linear peptides [2] | Binding of Control serum LUMC to looped peptides [2] | Binding of serum 1a to linear peptide (PEPSCAN-ELISA) [3] | Binding of serum 1a to looped/cyclic peptides of protein N of SARS-CoV Urbani [3] | Binding of serum 1b to linear peptide (PEPSCAN-ELISA) [3] | Binding of serum 1b to looped/cyclic peptides of protein N of SARS-CoV Urbani [3] | Binding of serum 2 to linear peptide (PEPSCAN-ELISA) [3] | Binding of serum 2 to looped/cyclic peptides of protein N of SARS-CoV Urbani [3] | Binding of serum 6 to linear peptide (PEPSCAN-ELISA) [3] | Binding of serum 6 to looped/cyclic peptides of protein N of SARS-CoV Urbani [3] | Binding of serum 37 to linear peptide (PEPSCAN-ELISA) [3] | Binding of serum 37 to looped/cyclic peptides of protein N of SARS-CoV Urbani [3] | Binding of serum 62 to linear peptide (PEPSCAN-ELISA) [3] | Binding of serum 62 to looped/cyclic peptides of protein N of SARS-CoV Urbani [3] | Binding of serum London to linear peptide (PEPSCAN-ELISA) [3] | Binding of serum London to looped/cyclic peptides of protein N of SARS-CoV Urbani [3] | further results
SQASSRSSSRSRGNS | 0.1 | 0.2 | 0.6 | 0.7 | 0.7 | 0.6 | 0.2 | 0.3 | 0.1 | 0.2 | 0.2 | 0.3 | 0.4 | 0.2 | 0.6 | 0.5 | 0.6 | 0.4 | 0.4 | 0.4 | Binding of serum SARS-green to linear peptide (PEPSCAN-ELISA) [3]: 0.2; Binding of serum SARS-green to looped/cyclic peptides of protein N of SARS-CoV Urbani [3]: 0.0; Binding of serum SARS-yellow to linear peptide (PEPSCAN-ELISA) [3]: 0.6; Binding of serum SARS-yellow to looped/cyclic peptides of protein N of SARS-CoV Urbani [3]: 0.3; Binding of a rabbit serum to linear peptides of protein N of SARS-CoV Urbani (Rabbit serum linear peptides) [4]: 0.1; Binding of a rabbit serum to looped/cyclic peptides of protein N of SARS-CoV Urbani (Rabbit serum looped peptides) [4]: 0.6
SRGNSPARMASGGGE | 0.1 | 0.2 | 0.5 | 0.8 | 0.8 | 0.4 | 0.3 | 0.2 | 0.2 | 0.1 | 0.1 | 0.2 | 0.2 | 0.1 | 0.6 | 0.4 | 0.6 | 0.3 | 0.6 | 0.3 | Binding of serum SARS-green to linear peptide (PEPSCAN-ELISA) [3]: 0.2; Binding of serum SARS-green to looped/cyclic peptides of protein N of SARS-CoV Urbani [3]: 0.2; Binding of serum SARS-yellow to linear peptide (PEPSCAN-ELISA) [3]: 0.6; Binding of serum SARS-yellow to looped/cyclic peptides of protein N of SARS-CoV Urbani [3]: 0.1; Binding of a rabbit serum to linear peptides of protein N of SARS-CoV Urbani (Rabbit serum linear peptides) [4]: 0.1; Binding of a rabbit serum to looped/cyclic peptides of protein N of SARS-CoV Urbani (Rabbit serum looped peptides) [4]: 0.2
SRGNSRNSTPGSSRG | 0.1 | 0.2 | 0.4 | 0.9 | 0.8 | 0.4 | 0.7 | 0.6 | 0.4 | 0.4 | 0.2 | 0.2 | 0.2 | 0.2 | 0.7 | 0.4 | 0.7 | 0.3 | 0.5 | 0.3 | Binding of serum SARS-green to linear peptide (PEPSCAN-ELISA) [3]: 0.4; Binding of serum SARS-green to looped/cyclic peptides of protein N of SARS-CoV Urbani [3]: 0.1; Binding of serum SARS-yellow to linear peptide (PEPSCAN-ELISA) [3]: 0.7; Binding of serum SARS-yellow to looped/cyclic peptides of protein N of SARS-CoV Urbani [3]: 0.2; Binding of a rabbit serum to linear peptides of protein N of SARS-CoV Urbani (Rabbit serum linear peptides) [4]: 0.2; Binding of a rabbit serum to looped/cyclic peptides of protein N of SARS-CoV Urbani (Rabbit serum looped peptides) [4]: 0.2
SRNSTPGSSRGNSPA | 0.1 | 0.2 | 0.7 | 0.9 | 0.9 | 0.7 | 0.7 | 0.6 | 0.5 | 0.6 | 0.4 | 0.4 | 0.2 | 0.4 | 0.8 | 0.5 | 0.9 | 0.5 | 0.6 | 0.4 | Binding of serum SARS-green to linear peptide (PEPSCAN-ELISA) [3]: 0.4; Binding of serum SARS-green to looped/cyclic peptides of protein N of SARS-CoV Urbani [3]: 0.3; Binding of serum SARS-yellow to linear peptide (PEPSCAN-ELISA) [3]: 0.7; Binding of serum SARS-yellow to looped/cyclic peptides of protein N of SARS-CoV Urbani [3]: 0.4; Binding of a rabbit serum to linear peptides of protein N of SARS-CoV Urbani (Rabbit serum linear peptides) [4]: 0.1; Binding of a rabbit serum to looped/cyclic peptides of protein N of SARS-CoV Urbani (Rabbit serum looped peptides) [4]: 0.6
